Assay results reported in PMC9942557, “Bolaamphiphile Analogues of 12-bis-THA Cl2 Are Potent Antimicrobial Therapeutics with Distinct Mechanisms of Action against Bacterial, Mycobacterial, and Fungal Pathogens” (mSphere, 2022).
Where two headings read alike, the source gives them in different places.

Experiments:
[1] = tested on: C. albicans 3281; assay: Broth microdilution MIC; format: cell-based, Candida albicans; settings: C. albicans 3281
[2] = tested on: M. smegmatis mc^2 155; assay: Broth microdilution MIC (Middlebrook 7H9); format: cell-based, Mycobacterium smegmatis
[3] = tested on: EMR Staphylococcus aureus 16 NCTC 13277; assay: Broth microdilution MIC; format: cell-based; settings: EMR Staphylococcus aureus 16 NCTC 13277
[4] = tested on: Acinetobacter baumannii AYE; assay: Broth microdilution MIC; format: cell-based; settings: Acinetobacter baumannii AYE
[5] = tested on: EMR Staphylococcus aureus 15 NCTC 13616; assay: Broth microdilution MIC; format: cell-based; settings: EMR Staphylococcus aureus 15 NCTC 13616
[6] = tested on: VR Enterococcus faecalis NCTC 12201; assay: Broth microdilution MIC; format: cell-based; settings: VR Enterococcus faecalis NCTC 12201
[7] = tested on: Escherichia coli ATCC 25922; assay: Intrahemocoelic G. mellonella infection model; format: in vivo, Galleria mellonella; settings: single 10-mg/kg dose 1 h after infection
Method: The antimicrobial activities of DQC, CM2, and its analogues Quino-bola, Penta-bola, Hepta-bola, and Octa-bola against Escherichia coli ATCC 25922 were tested in Galleria mellonella larvae. All assays were performed on two separate occasions using a group size of 10 larvae; the larvae were kept in separate petri dishes and in a static incubator at 37°C during the period of the experiment. A suspension of E. coli ATCC 25922 was prepared by transferring two colonies of E. coli ATCC 25922 from a fresh agar plate into PBS and adjusting the absorbance to a McFarland 0.5 standard. The number of CFU per milliliter of this suspension was determined and corresponded to 1 × 10^8 CFU/mL. Larvae were injected beneath the tegument with 10 μL of a 1 × 10^7-CFU/mL bacteria suspension, corresponding to 1 × 10^5 CFU per larva. A 50-μL Hamilton syringe with a G27 needle was used for the injection. […] Ten microliters of stock solution was injected into each larva 1 h after infection (10 mg/kg). Levofloxacin (LVX; 50 μg/mL = 2 mg/kg) and PBS were used as positive and negative controls, respectively. A noninfected PBS injection was included to control for the effects of injection. Survival was monitored over a period of 70 to 72 h. Changes in G. mellonella survival were analyzed by the log rank (Mantel-Cox) method and plotted as Kaplan-Meier survival curves using GraphPad Prism version 7.

[8] = tested on: Klebsiella pneumoniae M6; assay: Broth microdilution MIC; format: cell-based
[9] = tested on: C. parapsilosis 3209; assay: Broth microdilution MIC; format: cell-based
[10] = tested on: Pseudomonas aeruginosa NCTC 13437; assay: Broth microdilution MIC; format: cell-based
[11] = tested on: C. parapsilosis; assay: Broth microdilution MIC; format: cell-based
[12] = tested on: Pseudomonas aeruginosa PAO1; assay: Broth microdilution MIC; format: cell-based
[13] = tested on: C. glabrata 8018; assay: Broth microdilution MIC; format: cell-based; settings: C. glabrata 8018
[14] = tested on: M. tuberculosis Bleupan; assay: microbe, parasite or virus in culture; format: cell-based, Mycobacterium tuberculosis
[15] = tested on: Klebsiella pneumoniae NCTC 13368; assay: Broth microdilution MIC; format: cell-based
[16] = tested on: VR Enterococcus faecium NCTC 12204; assay: Broth microdilution MIC; format: cell-based; settings: VR Enterococcus faecium NCTC 12204
[17] = tested on: HeLa; assay: In vitro toxicity for cell line; format: cell-based, human; settings: average ± standard error from 3 independent repeats
Description: (§1) TABLE 2 Toxicity of bolaamphiphiles for two cell lines^a | column: Toxicity (EC50 [μg/ml]) of: / 12-bis-THA Cl2; Toxicity (EC50 [μg/ml]) of: / Dequalinium; Toxicity (EC50 [μg/ml]) of: / Quino-bola; Toxicity (EC50 [μg/ml]) of: / Penta-bola; Toxicity (EC50 [μg/ml]) of: / Hepta-bola; Toxicity (EC50 [μg/ml]) of: / Octa-bola; Toxicity (EC50 [μg/ml]) of: / Octa-C10; Toxicity (EC50 [μg/ml]) of: / Octa-C8; Toxicity (EC50 [μg/ml]) of: / Octa-C6

[18] = tested on: HEK293; assay: In vitro toxicity for cell line; format: cell-based, human; settings: HEK293, average ± standard error from 3 independent repeats
Description: as §1

[19] = tested on: C. albicans 3179; assay: Broth microdilution MIC; format: cell-based, Candida albicans; settings: C. albicans 3179
[20] = tested on: Escherichia coli NCTC 12923; assay: Broth microdilution MIC; format: cell-based
[21] = tested on: VS Enterococcus faecalis NCTC 775; assay: Broth microdilution MIC; format: cell-based
[22] = tested on: C. tropicalis 8760; assay: Broth microdilution MIC; format: cell-based; settings: C. tropicalis 8760
[23] = tested on: C. auris temp probe; assay: Broth microdilution MIC; format: cell-based, Candida auris; settings: C. auris temp probe
[24] = tested on: P. aeruginosa PAO1; assay: Checkerboard synergy assay; format: cell-based, Pseudomonas aeruginosa
[25] = tested on: C. krusei 3876; assay: Broth microdilution MIC; format: cell-based
[26] = tested on: Acinetobacter baumannii ATCC 17978; assay: Broth microdilution MIC; format: cell-based
[27] = tested on: Gram-positive bacteria (avg); assay: Selectivity index (toxicity/potency); format: cell-based; settings: ratio of average toxicity (HEK293 and HeLa) to average potency
[28] = tested on: Fungi (avg); assay: Selectivity index (toxicity/potency); format: cell-based, Candida spp.; settings: ratio of average toxicity (HEK293 and HeLa) to average potency
Description: as §1, with “3 Selectivity indices” for “2 Toxicity”, “bolaamphiphiles” for “bolaamphiphiles for two cell lines^a”, “Selectivity of^a:” for “Toxicity (EC50 [μg/ml]) of:”

[29] = tested on: Gram-negative bacteria (avg); assay: Selectivity index (toxicity/potency); format: cell-based; settings: ratio of average toxicity (HEK293 and HeLa) to average potency
Description: as §1, with “3 Selectivity indices” for “2 Toxicity”, “bolaamphiphiles” for “bolaamphiphiles for two cell lines^a”, “Selectivity of^a:” for “Toxicity (EC50 [μg/ml]) of:”

[30] = Candida albicans, read-out: MIC
[31] = Lodderomyces parapsilosis, read-out: MIC
[32] = Homo sapiens, read-out: Toxicity (EC50)

Q: Nc1c2c([n+](CCCCCCCCCCCC[n+]3c4c(c(N)c5ccccc53)CCCC4)c3ccccc13)CCCC2 [12-bis-THA Cl2, 12,12′-(Dodecane-1,12-diyl)-bis-(9-amino-1,2,3,4-tetrahydroacridinium) chloride] was tested. Which MIC [1] did it give?
A: 0.25 µg/mL

Q: And the MIC [2]?
A: 0.28 µg/mL

Q: What about the MIC [3] of the same molecule?
A: 0.125 µg/mL

Q: What about the MIC [4] of the same molecule?
A: 16 µg/mL

Q: And the MIC [5]?
A: 0.25 µg/mL

Q: What about the MIC [6] of the same molecule?
A: 1 µg/mL

Q: And the “protection (survival over 72 h)” value [7]?
A: survival was somewhat better than that obtained in the absence of treatment

Q: What about the MIC [8] of the same molecule?
A: 16 µg/mL

Q: What about the MIC [9] of the same molecule?
A: 1 µg/mL

Q: What about the MIC [10] of the same molecule?
A: 32 µg/mL

Q: And the MIC [11]?
A: 2 µg/mL

Q: And the MIC [12]?
A: 32 µg/mL

Q: What about the MIC [13] of the same molecule?
A: 0.25 µg/mL

Q: What about the MIC [14] of the same molecule?
A: 0.87 µg/mL

Q: And the MIC [15]?
A: 32 µg/mL

Q: And the MIC [16]?
A: 0.5 µg/mL

Q: What about the “Toxicity (EC50)” value [17] of the same molecule?
A: 7.1 ± 2.0 µg/mL

Q: What about the “Toxicity (EC50)” value [18] of the same molecule?
A: 5.5 ± 2.0 µg/mL

Q: What about the MIC [19] of the same molecule?
A: 0.25 µg/mL

Q: And the MIC [20]?
A: 4 µg/mL

Q: And the MIC [21]?
A: 2 µg/mL

Q: What about the MIC [22] of the same molecule?
A: 0.25 µg/mL

Q: What about the MIC [23] of the same molecule?
A: 2 µg/mL

Q: And the “MIC alone Bolalipid” value [24]?
A: 32 µg/mL

Q: What about the MIC [25] of the same molecule?
A: 0.5 µg/mL

Q: What about the MIC [26] of the same molecule?
A: 16 µg/mL

Q: How did the Selectivity index [27] turn out when Cc1cc(N)c2ccccc2[n+]1CCCCCCCCCC[n+]1c(C)cc(N)c2ccccc21 [Dequalinium, dequalinium chloride, reference compound] was run?
A: 2.65

Q: And the MIC [1, 30]?
A: 0.5 µg/mL

Q: And the MIC ([2]; Mycolicibacterium smegmatis, MC^2155, read-out: MIC)?
A: 0.68 µg/mL

Q: What about the MIC ([3]; NCTC13277, read-out: MIC) of the same molecule?
A: 4 µg/mL

Q: And the MIC ([4]; read-out: MIC)?
A: 32 µg/mL

Q: What about the MIC ([5]; NCTC13616, read-out: MIC) of the same molecule?
A: 8 µg/mL

Q: What about the MIC ([6]; NCTC12201, read-out: MIC) of the same molecule?
A: 16 µg/mL

Q: What about the “protection (survival over 72 h)” value [7] of the same molecule?
A: protective

Q: What about the MIC ([8]; read-out: MIC) of the same molecule?
A: > 32 µg/mL

Q: And the MIC [9, 31]?
A: 4 µg/mL

Q: What about the MIC ([10]; NCTC13437, read-out: MIC) of the same molecule?
A: > 32 µg/mL

Q: What about the Selectivity index [28] of the same molecule?
A: 26.8

Q: And the MIC [11, 31]?
A: 8 µg/mL

Q: And the MIC ([12]; read-out: MIC)?
A: > 32 µg/mL

Q: And the MIC ([13]; Nakaseomyces glabratus, read-out: MIC)?
A: 0.5 µg/mL

Q: And the Selectivity index [29]?
A: 0.69

Q: What about the MIC ([14]; Mycobacterium tuberculosis, read-out: MIC) of the same molecule?
A: 3.51 µg/mL

Q: What about the MIC ([15]; NCTC13368, read-out: MIC) of the same molecule?
A: > 32 µg/mL

Q: And the MIC ([16]; NCTC12204, read-out: MIC)?
A: 8 µg/mL

Q: And the EC50 [17, 32]?
A: 34.7 ± 13.9 µg/mL

Q: And the EC50 [18, 32]?
A: 9.9 ± 3.3 µg/mL

Q: And the MIC [19, 30]?
A: 0.5 µg/mL

Q: What about the MIC ([20]; NCTC12923, read-out: MIC) of the same molecule?
A: 32 µg/mL

Q: And the MIC ([21]; NCTC775, read-out: MIC)?
A: 32 µg/mL

Q: And the MIC ([22]; Candida tropicalis, read-out: MIC)?
A: 0.5 µg/mL

Q: What about the MIC ([23]; Candidozyma auris, read-out: MIC) of the same molecule?
A: 4 µg/mL

Q: And the MIC ([24]; Pseudomonas aeruginosa, read-out: MIC Alone Bolalipid)?
A: > 32 µg/mL

Q: What about the MIC ([25]; Pichia kudriavzevii, read-out: MIC) of the same molecule?
A: 1 µg/mL

Q: What about the MIC ([26]; ATCC17978, read-out: MIC) of the same molecule?
A: 32 µg/mL
